Our source for the IC50 values is paper PMC2868067 (Molecular cancer therapeutics, 2010).

This experiment deals with kinases in the Src family. Conditions: read-out: apparent IC50, Srctide; multiplexed, treated K-562 lysates (Figure 6A).

On to `Cc1nc(Nc2ncc(C(=O)Nc3c(C)cccc3Cl)s2)cc(N2CCN(CCO)CC2)n1` [dasatinib, N-(2-chloro-6-methyl-phenyl)-2-(6-(4-(2-hydroxyethyl)-piperazin-1-yl)-2-methylpyrimidin-4-ylamino)thiazole-5-carboxamide], for which the IC50 – broadly, the concentration that inhibits the measured activity by half – came out at 1.1 nM.
